Data reported in patent US10611750B2, “Tetrahydroquinoline compositions as bet bromodomain inhibitors” (FORMA Therapeutics, Inc., priority 2013, dated 2020).

Assays:
[1] = target: T1, BRD4 Bromodomain 1 (BRD4 BD1) (Homo sapiens, UniProt O60885); assay: AlphaScreen binding assay, BRD4 BD1; settings: His-tagged BRD4 BD1 50 nM, biotinylated H4 (1-21) K5/8/12/16 tetra-acetylated peptide 50 nM, compounds listed under IC50 range headings
T1 construct: 44-168 and BRD4 BD2
Method: The binding of Example compounds to BRD4 Bromodomain 1 and BRD4 Bromodomain 2 was assessed using 384-well AlphaScreen assay technology. His-epitope tagged BRD4 BD144-168 and BRD4 BD2333-460 were cloned, expressed, and purified to homogeneity. BRD4 BD1 and BRD4 BD2 binding and inhibition was assessed by monitoring the engagement of biotinylated Histone H4 (1-21) K5/8/12/16 tetra-acetylated peptide with the targets using the AlphaScreen technology (PerkinElmer). Specifically, in a 384-well black or white flat bottom plate, BRD4 BD1 (50 nM final) or BRD4 BD2 (100 nM final) was combined with peptide (50 nM final for BD1 or 100 nM final for BD2) in 50 mM HEPES (pH 7.3), 100 mM NaCl, 0.1% (w/v) BSA, and 0.01% (w/v) Triton X-100 either in the presence of DMSO (final 1.25% DMSO) or compound dilution series in DMSO. Alpha streptavidin donor beads and Nickel-chelate acceptor beads were added to a final concentration of 10 μg/ml each. After a minimum of 1 hour equilibration, plates were read on a BMG PHERAstar FS multi-label reader (BMG LabTech). The half maximal inhibitory concentration (IC50) values were calculated using IDBS Activity Base software with a four parameter logistic curve fit by the equation y=A+((B−A)/(1+((C/x)^D))), wherein A denotes the bottom plateau of the curve, B denotes the top plateau of the curve, C denotes the x value at the middle of the curve, D denotes the slope factor, x denotes the original known x values, and y denotes the original known y values. Data was fitted using the Levenburg Marquardt algorithm.

[2] = test system: acute myelocytic leukemia (AML) cell line MV4-11; assay: Oncology cell growth assay (3-day proliferation, CellTiter-Glo); assay type: cell-based; settings: Homo sapiens, MV4-11, 72 h, MV4-11 cells, 3000 cells/well, compounds listed under IC50 range headings, read-out: MV411 IC50 (gIC50, inhibition of proliferation)
Method: The impact of Example compounds on cancer cell proliferation was determined using the acute myelocytic leukemia (AML) cell line MV4-11 (ATCC) in a 3-day proliferation assay. MV4-11 cells were maintained in RPMI 1640 media supplemented with 10% FBS at 37° C. and an atmosphere of 5% CO2. For compound testing, compound dilutions series were prepared in DMSO via a 3-fold serial dilution from 2 mM to 0.001 mM in 384-well white flat bottom plates. The final compound concentrations in the wells were 10, 3.3, 1.1, 0.37, 0.12, 0.041, 0.013 and 0.0045 μM. MV4-11 cells were plated at a density of 3000 cells/well in final volume of 50 μl culture media and incubated for 72 hours. […] Luminescent signal from the CellTiter-Glo assay was read on an EnVision multilabel plate reader (PerkinElmer). Values for the concentration that inhibited cell growth by 50% (gIC50) between the DMSO control and background control (no cells) were determined using IDBS Activity Base software with a four parameter logistic curve fit by the equation y=A+((B−A)/(1+((C/x)^D))), wherein A denotes the bottom plateau of the curve, B denotes the top plateau of the curve, C denotes the x value at the middle of the curve, D denotes the slope factor, x denotes the original known x values, and y denotes the original known y values. Data was fitted using the Levenburg Marquardt algorithm.

Row | Structure (SMILES) | IC50 [1] [nM] | IC50 [2] [nM]
1 | COC(=O)N1c2ccc(-c3cnn(C4CC5CNCC5C4)c3)c(OC3CCC3)c2CC[C@@H]1C (stereo partly drawn) [I-109, (2S)-methyl 5-cyclobutoxy-2-methyl-6-(1-(octahydrocyclopenta[c]pyrrol-5-yl)-1H-pyrazol-4-yl)-3,4-dihydroquinoline-1(2H)-carboxylate] | 100 to 1000 | < 500
2 | C[C@H]1CCc2c(ccc(-c3cnn(C4CNC4)c3)c2Oc2cccc(Cl)c2)N1C(=O)C1CC1 [I-178, (S)-(6-(1-(azetidin-3-yl)-1H-pyrazol-4-yl)-5-(3-chlorophenoxy)-2-methyl-3,4-dihydroquinolin-1 (2H)-yl)(cyclopropyl)methanone] | 100 to 1000 | < 500
3 | C[C@H]1CCc2c(ccc(-c3cnn(C4CCNCC4)c3)c2Oc2cccc(Cl)c2)N1C(=O)C1CC1 [I-179, (S)-(5-(3-chlorophenoxy)-2-methyl-6-(1-(piperidin-4-yl)-1H-pyrazol-4-yl)-3,4-dihydroquinolin-1 (2H)-yl)(cyclopropyl)methanone] | 100 to 1000 | < 500
4 | C#Cc1ccc2c(c1Oc1ccccc1)CC[C@H](C)N2C(=O)OC [I-346, (S)-methyl 6-ethynyl-2-methyl-5-phenoxy-3,4-dihydroquinoline-1(2H)-carboxylate] | ≥ 10000 | > 1000
5 | COC(=O)N1c2ccc(-c3cn(C)c(C4CCNCC4)n3)c(OC3CCC3)c2CC[C@@H]1C [I-304, methyl (S)-5-cyclobutoxy-2-methyl-6-(1-methyl-2-(piperidin-4-yl)-1H-imidazol-4-yl)-3,4-dihydroquinoline-1(2H)-carboxylate] | ≥ 10000 | > 1000
6 | C[C@H]1CCc2c(OC3CCC3)c(-c3cnn(C4CC4)c3)cc(F)c2N1C(=O)C1CC1 [I-69, (S)-(5-cyclobutoxy-6-(1-cyclopropyl-1H-pyrazol-4-yl)-8-fluoro-2-methyl-3,4-dihydroquinolin-1(2H)-yl)(cyclopropyl)methanone] | 1000 to 10000 | 500 to 1000
7 | Cc1nnc(-c2ccc3c(c2Oc2ccccc2)CC[C@H](C)N3C(=O)C2CC2)s1 [I-220, (S)-cyclopropyl(2-methyl-6-(5-methyl-1,3,4-thiadiazol-2-yl)-5-phenoxy-3,4-dihydroquinolin-1(2H)-yl)methanone] | 1000 to 10000 | < 500
8 | CC(=O)N1c2ccc(-c3cnn(C4CCNCC4)c3)c(Oc3ccccn3)c2CC[C@@H]1C [I-203, (S)-1-(2-methyl-6-(1-(piperidin-4-yl)-1H-pyrazol-4-yl)-5-(pyridin-2-yloxy)-3,4-dihydroquinolin-1(2H)-yl)ethanone] | 100 to 1000 | < 500
9 | C[C@H]1CCc2c(ccc(-c3ccn[nH]3)c2OC2CCC2)N1C(=O)C1CC1 [I-56, (S)-(5-cyclobutoxy-2-methyl-6-(1H-pyrazol-5-yl)-3,4-dihydroquinolin-1(2H)-yl)(cyclopropyl)methanone] | 1000 to 10000 | 500 to 1000
10 | COC(=O)N1c2ccc(-c3cnn(C4CCNCC4)c3)c(Oc3cccc(OC)c3)c2CC[C@@H]1C [I-198, (S)-methyl 5-(3-methoxyphenoxy)-2-methyl-6-(1-(piperidin-4-yl)-1H-pyrazol-4-yl)-3,4-dihydroquinoline-1(2H)-carboxylate] | 100 to 1000 | < 500
11 | C[C@H]1CCc2c(ccc(-c3cnn(C4CS(=O)(=O)C4)c3)c2OC2CCC2)N1C(=O)C1CC1 [I-509] | 100 to 1000 | < 500
12 | COC(=O)N1c2ccc(-c3cnn(C4CNC4C)c3)c(OC3CCC3)c2CC[C@@H]1C (stereo partly drawn) [I-299, methyl (2S)-5-cyclobutoxy-2-methyl-6-(1-(2-methylazetidin-3-yl)-1H-pyrazol-4-yl)-3,4-dihydroquinoline-1(2H)-carboxylate] | 1000 to 10000 | 500 to 1000
13 | C[C@H]1CCc2c(ccc(-c3cnoc3)c2OC2CCC2)N1C(=O)C1CC1 [I-123, (S)-(5-cyclobutoxy-6-(isoxazol-4-yl)-2-methyl-3,4-dihydroquinolin-1(2H)-yl)(cyclopropyl)methanone] | 1000 to 10000 | > 1000
